According to patent publication US20250025451A1, “TREATMENT OF CANCER WITH KDM4 INHIBITORS” (Celgene Corporation, priority 2021, published 2025):

What was measured:
[1] = system: tumor initiating cells of SU60 xenograft tumors; experiment: functional in vivo tumorigenicity assay (limiting dilution assay); set-up: species or system mice
Description: The ability of Compound 1 to affect tumorigenic potential was analyzed by flow cytometry analysis of the tumorigenic cell population and functional in vivo tumorigenicity assay (limiting dilution assay).
To assess the effect of Compound 1 on tumorigenic cell population, Compound 1 was used to treat SU60 xenograft tumors. NSG female mice engrafted with SU60 cells (7 mice each group) were administered Compound 1 at 40 mg/kg PO QD×21. The day after the last dose, three tumors nearest to the mean size from each group were dissociated and the single cells were used to perform: 1) flow cytometry analysis of the tumorigenic cell population and 2) functional in vivo tumorigenicity assay (limiting dilution assay). Flow Cytometry Analysis of Tumorigenic Cell Population after Compound 1 Treatment
To study the effect of Compound 1 on tumor initiating cell (TIC) frequency in CRC tumors, we evaluated the tumorigenic potential of SU60 xenograft cells posttreatment with Compound 1 or vehicle. At the end of dosing, SU60 dissociated cells from three animals per group nearest to the mean size were injected in a limiting dilution manner into recipient NSG mice and tumor volumes were measured. The number of cells required for tumor formation was reduced in the Compound 1-treated group. The reduction in TIC frequency was 4.4-fold (FIG. 17 and Table 10). Differentiation of progenitor cells is a potential explanation for this reduction.

[2] = system: SU103 patient-derived colon cancer organoid model; experiment: organoid colony formation assay, SU103; format: cell-based, human
Description: (§1) The IC50 values for Compound 1 inhibition of colony formation and viability were determined for the patient-derived colon cancer organoid models: SU60, T002C, SU62, SU34, SU103, T03SC, and SU106, patient-derived pancreatic cancer organoid models PA016SF, PA0143F, T016P, and T028P, and a patient-derived breast cancer organoid model FS5S3.
(§2) Colony formation and viability assays were performed in multiwell plates seeded with organoids using an in vitro culture system composed of a Matrigel layer, media containing a defined set of growth factors, and co-culture with Wnt3 A-secreting mouse embryonic fibroblasts. Assays were initiated by adding either DMSO as a negative control, or an inhibitor panobinostatat 100×IC50 concentration as a positive control, or serially diluted Compound 1. The cultures were incubated for 168 or 144 hours after which the number of viable organoids in each test well was assessed respectively using one of two detection methods: CTG or staining with calcein-AM followed by imaging and colony counting. Colony count or viability of cells treated with compound 1 was expressed as a percent of the negative control. Aggregated Percent of Control values were plotted against the corresponding Compound 1 concentration and the absolute IC50 value was determined from a non-linear regression curve as the concentration where inhibition was 50% of the control.

[3] = system: SU60 patient-derived colon cancer organoid model; experiment: organoid colony formation and viability assay, SU60; format: cell-based, human
Description: as §1, §2
The colony formation inhibition assays were performed in multiwell plates seeded with SU60 organoids. The cultures were incubated for 168 hours after which the number of colonies was assessed by staining with calcein AM followed by imaging and colony counting. Colony counts were expressed as a percent of the negative control and aggregated Percent of Control values were plotted against the corresponding Compound 1 concentration. A curve was fitted using non-linear regression.

[4] = system: T016P patient-derived pancreatic cancer organoid model; experiment: organoid colony formation assay, T016P; format: cell-based, human
Description: as §1, §2

[5] = system: immature and mature cell markers in SU60 xenograft tumor cells; experiment: single cell gene expression analysis (RT-qPCR) of SU60 xenograft tumors; format: in vivo; conditions: treated vs vehicle
Text: FIG. 22 illustrates the heatmap representation of single cells gene expression analysis (RT-qPCR) from SU60 xenograft tumors treated with vehicle control or Compound 1. A) Heatmap representation of single cells gene expression analysis (RT-qPCR) from SU60 xenograft tumors treated with vehicle control or Compound 1. Gene expression levels are colored-coded with red for high expression, green low expression and gray not expressed. Three clusters of cells were identified based on shared patterns of gene expression using a gene-set of immature and mature cell markers. […] The top dendrogram clusters genes with similar expression pattern across all cells. Gene expression (in Ct values) was mean-centered at 0 and divided by 2.5 time the standard deviation. B) This graph represents the total number of vehicle-treated and compound 1 treated cells within each cluster. P-values (Fisher's exact test) are represented on top of the bars.
Vehicle control and Compound 1-treated samples were characterized by single cell transcriptional profiling with a gene-set designed to discriminate immature colon progenitor cells and more mature cell-types (Dalerba, 2011). […] Using hierarchical clustering analysis, three clusters based on expression of a subset of immature and mature cell markers were identified. […]

H3K36me3 = experiment: dose-dependent inhibition of histone demethylase, H3K36me3 immunoblot; format: cell-based; conditions: FIG. 6
Description: FIG. 6 illustrates the dose-dependent inhibition of histone demethylase by Compound 1. Left Panel: Representative immunoblot showing change in staining intensity for actin (red bands) and H3K36me3 (green bands) in response to Compound 1 at various concentrations. Right Panel: Normalized ratio of band intensities for H3K36me3 and actin versus the concentration of Compound 1 (μM). (mean IC50±SD value−0.085±0.004 μM).

[6] = SU60 cells from tumors treated 40 mg/kg QD, injected into recipient NSG mice, 50 cells
[7] = SU60 cells from tumors treated 40 mg/kg QD, injected into recipient NSG mice, 500 cells
[8] = SU60 cells from tumors treated 40 mg/kg QD, injected into recipient NSG mice, 1000 cells

SMILES: CC(C)c1ccc(N(C)c2ccc3c(c2)OCC[C@H]3CNc2cnccc2C(=O)O)cc1 [Compound 1, 3-({[(4R)-7-{methyl[4-(propan-2-yl)phenyl]amino}-3,4-dihydro-2H-1-benzopyran-4-yl]methyl}amino)pyridine-4-carboxylic acid]
- Mean Tumor Volume (50 cells) [1, 6]: 209 mm^3
- Tumor Take Rate (50 cells) [1, 6]: 3/10
- Mean Tumor volume (500 cells) [1, 7]: 589 mm^3
- Tumor Take Rate (500 cells) [1, 7]: 5/10
- Mean Tumor Volume (1000 cells) [1, 8]: 830 mm^3
- Tumor Take Rate (1000 cells) [1, 8]: 7/10
- reduction in TIC frequency ([1]; SU60 xenograft, 40 mg/kg PO QD x21, vs vehicle): 4.4 fold
- IC50 ([2]; Homo sapiens, SU103 colorectal carcinoma model): > 10000 nM
- IC50 ([2]; SU103 human colorectal carcinoma organoid, 144 hrs, Colony Counts): > 10000 nM
- IC50 ([3]; Homo sapiens, SU60 colorectal carcinoma model, colony formation and viability assays): < 150 nM
- IC50 ([3]; SU60 human colorectal carcinoma organoid, 144 hrs, Colony Counts): 64 nM
- IC50 ([3]; SU60 human colorectal carcinoma organoid, 168 hrs, CTG): 23 nM
- IC50 ([4]; Homo sapiens, T016P pancreatic carcinoma model): > 10000 nM
- IC50 ([4]; T016P human pancreatic carcinoma organoid, 144 hrs, Colony Counts): > 10000 nM
- change in the proportion of progenitor-like cells ([5]; p=0.01): significant reduction
- change in number of intermediate-like and differentiated-like cells ([5]; p=0.07): increase was not significant
- mean IC50±SD, H3K36me3/actin band intensity ratio (H3K36me3): 85 ± 4 nM
